Assay results published in paper PMC10447463, “Data-mining unveils structure–property–activity correlation of viral infectivity enhancing self-assembling peptides” (Nature Communications, 2023).

What was measured:
[1] = system: HIV-1 infection of TZM-bl cells; test: HIV-1 infectivity enhancement assay, β-galactosidase luminescence; format: cell-based; conditions: for Log10 Infection Rel EF-C: log10 of infection relative to EF-C, Figure 7B; for Inf. rel. EF-C: n-fold infection vs virus only, relative to that of EF-C, 1.3 µM peptide
[2] = format: physicochemical; parameters: key to Fibril / Fibril Formation / TEM 2cat / Fibril: 1 = fibrils present; 0 non-fibrillar structures; conditions: for Fibril / Fibril Formation: TEM, 1 mg/mL, uranyl acetate stain, qualitative
[3] = Turbidity, derived count rate of scattered light; format: physicochemical; conditions: for Count Rate / kcps: derived count rate of scattered light at 633 nm, 173°, from zeta-potential measurement, 0.1 mg/mL in 1 mM KCl after 1 d at 1 mg/mL in PBS, turbidity / microscopic aggregation, mean of triplicate
How it was run: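 Samples: 1 mg/mL in PBS pH 7.4 (from DMSO), 1 d at RT, then diluted in 1 mM KCl immediately before measurement. Triplicates, two independent runs averaged.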

For DFNKF [reference compound], the “Log10 Infection Rel EF-C” value [1] was -1.07, the “Inf. rel. EF-C” value [1] was 0.08 and the “Fibril / Fibril Formation” value [2] was 1. The “Count Rate / kcps” value [3] was 1065 kcps.
For VQIVYK [reference compound], the “Log10 Infection Rel EF-C” value [1] was -1.17, the “Inf. rel. EF-C” value [1] was 0.07 and the “Fibril / Fibril Formation” value [2] was 0. For the same substance, the “Count Rate / kcps” value [3] was 26 kcps.
In the case of RCELARTLKR [reference compound], the “Log10 Infection Rel EF-C” value [1] is reported as -1.06, the “Inf. rel. EF-C” value [1] is reported as 0.09 and the “Fibril / Fibril Formation” value [2] is reported as 0. The “Count Rate / kcps” value [3] was 78 kcps.
With NSGAITIG-NH2 [reference compound] the “Log10 Infection Rel EF-C” value [1] was -1.26, the “Inf. rel. EF-C” value [1] was 0.05 and the “Fibril / Fibril Formation” value [2] was 0. For the same substance, the “Count Rate / kcps” value [3] was 20 kcps.
For RIRIQIC [PS07], the “TEM: 1= fibrils, 0= aggregates (micelle), 0.5 = aggregates and fibrils, -1 = nothing obersved, STD prep” value ([2]; STD prep) was 1, the “Zeta Count Rate Category” value ([3]; category 1 / 0, no key given) was 1 and the “Zeta Count Rate / kcps” value ([3]; derived count rate of scattered light) was 191.1 kcps.
With VLYVGSKT [reference compound] the “Log10 Infection Rel EF-C” value [1] was -1.24, the “Inf. rel. EF-C” value [1] was 0.06 and the “Fibril / Fibril Formation” value [2] was 0. The “Count Rate / kcps” value [3] was 24 kcps.
For GNNQQNY [reference compound], the “Log10 Infection Rel EF-C” value [1] was -1.28, the “Inf. rel. EF-C” value [1] was 0.05 and the “Fibril / Fibril Formation” value [2] was 0. For the same substance, the “Count Rate / kcps” value [3] was 37 kcps.
In the case of IIKIIK [reference compound], the “Log10 Infection Rel EF-C” value [1] is reported as -1.1, the “Inf. rel. EF-C” value [1] is reported as 0.08 and the “Fibril / Fibril Formation” value [2] is reported as 0. The “Count Rate / kcps” value [3] was 4 kcps.
In the case of GAITIG-NH2 [reference compound], the “Log10 Infection Rel EF-C” value [1] is reported as -1.35, the “Inf. rel. EF-C” value [1] is reported as 0.04 and the “Fibril / Fibril Formation” value [2] is reported as 0. The “Count Rate / kcps” value [3] was 30 kcps.
In the case of GQTVTK [reference compound], the “Log10 Infection Rel EF-C” value [1] is reported as -1.25, the “Inf. rel. EF-C” value [1] is reported as 0.06 and the “Fibril / Fibril Formation” value [2] is reported as 0. For the same substance, the “Count Rate / kcps” value [3] was 34 kcps.
